What is called GI50 is the concentration at which growth is held to half of that of the control.

What all share (type): cell-based, Human
One assay concerns ACHN (kidney cancer). The assay is described as follows: Test for inhibition of tumor cell growth (SRB), ACHN. To be noted: Homo sapiens, ACHN; 48 hours, SRB staining. As for the experimental part:
(§1) Human tumor cell lines, PC-3 (prostate cancer, ATCC, USA), MBA-MB-231 (breast cancer, ATCC, USA), ACHN (kidney cancer, ATCC, USA), and NUGC-3 (gastric cancer, ATCC, USA) were cultured in RPMI 1640 media containing 10% fetal bovine serum (FBS).
(§2) In order to measure anticancer activity, a suitable concentration of cells in RPMI 1640 media containing 5% fetal bovine serum (about 5×10^4 cells/□) was aliquotted in 96-well plates, and cultured in 5% CO2 at 37° C. On day one after aliquoting the cells, before the cells were treated with the compounds, in order to determine their concentration, 50[…] of 50% trichloroacetic acid was added to each well of time zero (T0) plate, and cells were fixed to determine zero point. The cells treated with the compounds were fixed on each well having 50[…] of 50% trichloroacetic acid after 48 hours. The final concentrations of the test compounds were 0.01, 0.03, 0.1, 0.3, and 1[…]/□. The fixed plate was washed with water and dried, and then 100[…] of 0.4% sulphorhodamine B (SRB) dissolved in 0.1% acetic acid was added to the each well to stain the cells. The plate was allowed to stand for 30 minutes, and then washed with 0.1% acetic acid. Then, the plate was dried at room temperature, and treated with 10 mM tris base (pH 10.5) to dissolve staining reagent. An absorbance measured at 540 nm was calculated as a percentage of the control group, and then the concentration of the compound that inhibited tumor cell growth (GI50(□/□)) by 50% was determined.
For orientation: Sulforhodamine B stains cellular protein and so reports cell mass.

A further assay concerns PC-3 (prostate cancer). The assay is described as follows: Test for inhibition of tumor cell growth (SRB), PC-3. To be noted: Homo sapiens; 48 hours, SRB staining; read-out: GI50 PC-3 (prostate ancer). As for the experimental part:
as §1, §2

Assay [1] relates to MBA-MB-231 (breast cancer). The assay is described as follows: Test for inhibition of tumor cell growth (SRB), MBA-MB-231. As to conditions: Homo sapiens; 48 hours, SRB staining. The protocol: as §1, §2
Another assay relates to NUGC-3 (gastric cancer). The assay is described as follows: Test for inhibition of tumor cell growth (SRB), NUGC-3. To be noted: Homo sapiens, NUGC-3; 48 hours, SRB staining. The protocol:
as §1, §2

As for `C=CC[N+]1(C)CCN(S(=O)(=O)CCCCCCCC)CC1` [Example 61, 1-allyl-1-methyl-4-(octane-1-sulfonyl)piperazin-1-ium bromide], the 50% growth inhibitory concentration (GI50) (in the assay with ACHN (kidney cancer); in the assay with PC-3 (prostate cancer); in assay [1]; in the assay on NUGC-3 (gastric cancer)) was more than 10 µg/mL each time.
Consider `CCCCCCCCCCCS(=O)(=O)N1CC[N+](C)(CC)CC1` [Example 93, 1-ethyl-1-methyl-4-(undecane-1-sulfonyl)piperazin-1-ium iodide], for which the concentration for 50% growth inhibition (GI50) with ACHN (kidney cancer) is 1.11 µg/mL; with PC-3 (prostate cancer), 0.67 µg/mL; in assay [1], 2.71 µg/mL; in the assay on NUGC-3 (gastric cancer), 0.62 µg/mL.
With `CCCCCCCCCC(=O)N1CC[N+](CC)(Cc2ccccc2)CC1` [Example 10, 1-benzyl-4-decanoyl-1-ethyl-piperazin-1-ium bromide], the concentration for 50% growth inhibition (GI50) (in the assay with ACHN (kidney cancer); in the assay on PC-3 (prostate cancer); in assay [1]; in the assay on NUGC-3 (gastric cancer)) was more than 10 µg/mL each time.
Regarding `C=CC[N+]1(CC)CCN(S(=O)(=O)CCCCCCCCCC)CC1` [Example 80, 1-allyl-4-(decane-1-sulfonyl)-1-ethyl-piperazin-1-ium bromide], the 50% growth inhibitory concentration (GI50) in the assay on ACHN (kidney cancer) is 3.07 µg/mL; in the assay on PC-3 (prostate cancer), 0.85 µg/mL; in assay [1], more than 10 µg/mL; in the assay on NUGC-3 (gastric cancer), 0.89 µg/mL.
Take `C=CC[N+]1(C)CCN(C(=O)CCCCCCCCCCCCCCCCC)CC1` [Example 26, 1-allyl-1-methyl-4-octadecanoyl-piperazin-1-ium bromide]: the 50% growth inhibitory concentration (GI50) in the assay with ACHN (kidney cancer) is 1.79 µg/mL; in the assay on PC-3 (prostate cancer), 0.54 µg/mL; in assay [1], 1.13 µg/mL; in the assay on NUGC-3 (gastric cancer), 0.88 µg/mL.
Take `C=CC[N+]1(C)CCN(C(=O)CCCCCCC)CC1.[Br-]` [Example 4, 1-allyl-1-methyl-4-octanoyl-piperazin-1-ium bromide]: the 50% growth inhibitory concentration (GI50) (in the assay with ACHN (kidney cancer); in the assay on PC-3 (prostate cancer); in assay [1]; in the assay with NUGC-3 (gastric cancer)) was more than 10 µg/mL in each case.
Consider `C=CC[N+]1(C)CCCN(C(=O)CCCCCCCCCCCCC)CC1` (stereo not drawn) [Example 127, 1-allyl-1-methyl-4-tetradecanoyl-1,4-diazepan-1-ium bromide], for which the concentration for 50% growth inhibition (GI50) in the assay with ACHN (kidney cancer) turned out to be 0.44 µg/mL; in the assay with PC-3 (prostate cancer) it was 0.18 µg/mL; in assay [1], 0.45 µg/mL; with NUGC-3 (gastric cancer), 0.26 µg/mL.
For `CCCCCCCCCCCCCCCCCCCC(=O)N1CC[N+](C)(CC)CC1` [Example 30, 1-ethyl-4-icosanoyl-1-methylpiperazin-1-ium iodide], the GI50 with ACHN (kidney cancer) amounted to 1.23 µg/mL; in the assay on PC-3 (prostate cancer), 0.34 µg/mL; in assay [1], 1.71 µg/mL; with NUGC-3 (gastric cancer), 0.61 µg/mL.
Take `CCCCCCCCCCCCCCCC(=O)N1CC[N+](CC)(Cc2ccccc2)CC1.[Br-]` [Example 21, 1-benzyl-1-ethyl-4-hexadecanoyl-piperazin-1-ium bromide]: the GI50 in the assay with ACHN (kidney cancer) came to 0.92 µg/mL; with PC-3 (prostate cancer), 0.55 µg/mL; in assay [1], 1.16 µg/mL; with NUGC-3 (gastric cancer) it was 0.46 µg/mL.
With `C=CC[N+]1(C)CCN(C(=O)CCCCCCCCCCCCCCCCCCC)CC1` [Example 33, 1-allyl-4-icosanoyl-1-methylpiperazin-1-ium bromide], the GI50 with ACHN (kidney cancer) was more than 10 µg/mL; with PC-3 (prostate cancer), 4.29 µg/mL; in assay [1] it was more than 10 µg/mL; with NUGC-3 (gastric cancer), 3.45 µg/mL.
As for `CCCCCCCCCS(=O)(=O)N1CC[N+](C)(Cc2ccccc2)CC1` [Example 103, 1-benzyl-1-methyl-4-(nonane-1-sulfonyl)piperazin-1-ium bromide], the GI50 is more than 10 µg/mL with ACHN (kidney cancer), 1.25 µg/mL in the assay on PC-3 (prostate cancer), more than 10 µg/mL in assay [1] and 3.45 µg/mL with NUGC-3 (gastric cancer).
Take `CCCCCCCCCCCCCCCC(=O)N1CC[N+](C)(CC)CC1.[I-]` [Example 23, 1-ethyl-4-hexadecanoyl-1-methyl-piperazin-1-ium iodide]: the concentration for 50% growth inhibition (GI50) is 1.89 µg/mL in the assay with ACHN (kidney cancer), 0.8 µg/mL with PC-3 (prostate cancer), 2.05 µg/mL in assay [1] and 0.58 µg/mL in the assay with NUGC-3 (gastric cancer).
Consider `CCCCCCCCCCCCCCCC(=O)N1CCC[N+](C)(C)CC1` [Example 122, 4-hexadecanoyl-1,1-dimethyl-1,4-diazepan-1-ium iodide], for which the 50% growth inhibitory concentration (GI50) in the assay on ACHN (kidney cancer) was 0.4 µg/mL; with PC-3 (prostate cancer), 0.4 µg/mL; in assay [1] it was 0.94 µg/mL; in the assay on NUGC-3 (gastric cancer), 0.21 µg/mL.
Turning to `C=CC[N+]1(CC)CCN(C(=O)CCCCCCCCCCCCCCCCC)CC1` [Example 29, 1-allyl-1-ethyl-4-octadecanoyl-piperazin-1-ium bromide], the GI50 turned out to be 2.43 µg/mL in the assay on ACHN (kidney cancer), 0.84 µg/mL in the assay with PC-3 (prostate cancer), 2.51 µg/mL in assay [1] and 1.37 µg/mL in the assay on NUGC-3 (gastric cancer).
For `CCCCCCCCCCS(=O)(=O)N1CC[N+](C)(CC)CC1` [Example 78, 4-(decane-1-sulfonyl)-1-ethyl-1-methyl-piperazin-1-ium iodide], the 50% growth inhibitory concentration (GI50) is 4.15 µg/mL with ACHN (kidney cancer), 1.06 µg/mL in the assay with PC-3 (prostate cancer), more than 10 µg/mL in assay [1] and 1.81 µg/mL with NUGC-3 (gastric cancer).
With `CCCCCCCC(=O)N1CC[N+](C)(CC)CC1.[I-]` [Example 6, 1-ethyl-1-methyl-4-octanoyl-piperazin-1-ium iodide], the GI50 (with ACHN (kidney cancer); with PC-3 (prostate cancer); in assay [1]; with NUGC-3 (gastric cancer)) was more than 10 µg/mL each time.
As to `C=CCCCCCCCCC(=O)N1CC[N+](C)(CC=C)CC1` [Example 43, 1-allyl-1-methyl-4-undec-10-enoyl-piperazin-1-ium bromide], the GI50 with ACHN (kidney cancer) is more than 10 µg/mL; in the assay on PC-3 (prostate cancer), 1.32 µg/mL; in assay [1] it was more than 10 µg/mL; in the assay with NUGC-3 (gastric cancer), more than 10 µg/mL.
With `CCCCCCCCCCS(=O)(=O)N1CC[N+](C)(C)CC1` [Example 75, 4-(decane-1-sulfonyl)-1,1-dimethyl-piperazin-1-ium iodide], the concentration for 50% growth inhibition (GI50) was 4.45 µg/mL in the assay on ACHN (kidney cancer), 1.84 µg/mL with PC-3 (prostate cancer), more than 10 µg/mL in assay [1] and 3.29 µg/mL with NUGC-3 (gastric cancer).
In the same order, the values of `C=CC[N+]1(C)CCN(C(=O)CCCCCCCCCCCCCCCCCCCCC)CC1` [Example 36, 1-allyl-4-docosanoyl-1-methylpiperazin-1-ium bromide] are 2.37 µg/mL, 0.96 µg/mL, 3.16 µg/mL and 1.53 µg/mL.
In the same order, the values of `CCCCCCCCCCCCCCS(=O)(=O)N1CC[N+](C)(Cc2ccccc2)CC1` [Example 70, 1-benzyl-1-methyl-4-(tetradecane-1-sulfonyl)piperazin-1-ium bromide] are 1.11 µg/mL, 0.49 µg/mL, 0.87 µg/mL and 0.53 µg/mL.
In the same order, the values of `CCCCCCCC(=O)N1CC[N+](CC)(Cc2ccccc2)CC1.[Br-]` [Example 7, 1-benzyl-1-ethyl-4-octanoyl-piperazin-1-ium bromide] are more than 10 µg/mL, more than 10 µg/mL, more than 10 µg/mL and more than 10 µg/mL.
In the case of `CCCCCCCCCS(=O)(=O)N1CC[N+](CC)(Cc2ccccc2)CC1` [Example 100, 1-benzyl-1-ethyl-4-(nonane-1-sulfonyl)piperazin-1-ium bromide], the GI50 with ACHN (kidney cancer) is more than 10 µg/mL; in the assay on PC-3 (prostate cancer), 4.08 µg/mL; in assay [1] it was more than 10 µg/mL; in the assay on NUGC-3 (gastric cancer), 1.73 µg/mL.
On to `CCCCCCCCCCCCCC(=O)N1CCC[N+](C)(C)CC1` [Example 123, 1,1-dimethyl-4-tetradecanoyl-1,4-diazepan-1-ium iodide], for which the GI50 in the assay with ACHN (kidney cancer) turned out to be 0.49 µg/mL; in the assay on PC-3 (prostate cancer), 0.36 µg/mL; in assay [1] it was 0.98 µg/mL; in the assay with NUGC-3 (gastric cancer), 0.08 µg/mL.
On to `CCCCCCCCCCCCCC(=O)N1CCC[N+](C)(Cc2ccccc2)CC1` (stereo not drawn) [Example 124, 1-benzyl-1-methyl-4-tetradecanoyl-1,4-diazepan-1-ium bromide], for which the 50% growth inhibitory concentration (GI50) in the assay on ACHN (kidney cancer) was found to be 1 µg/mL; in the assay on PC-3 (prostate cancer), 0.45 µg/mL; in assay [1], 1.16 µg/mL; with NUGC-3 (gastric cancer), 0.31 µg/mL.
Regarding `C=CCCCCCCCCC(=O)N1CC[N+](C)(C)CC1` [Example 45, 1,1-dimethyl-4-undec-10-enoyl-piperazin-1-ium iodide], the 50% growth inhibitory concentration (GI50) in the assay with ACHN (kidney cancer) was more than 10 µg/mL; in the assay with PC-3 (prostate cancer), 2.02 µg/mL; in assay [1] it was more than 10 µg/mL; with NUGC-3 (gastric cancer) it was more than 10 µg/mL.
`C=CC[N+]1(C)CCCN(C(=O)CCCCCCCCCCCCCCC)CC1` (stereo not drawn) [Example 120, 1-allyl-1-methyl-4-palmitoyl-1,4-diazepan-1-ium bromide]: the GI50 with ACHN (kidney cancer) amounted to 0.74 µg/mL; in the assay with PC-3 (prostate cancer), 0.75 µg/mL; in assay [1], 1.44 µg/mL; in the assay on NUGC-3 (gastric cancer), 0.2 µg/mL.
Turning to `CCCCCCCCCCCCCCCCCCS(=O)(=O)N1CC[N+](C)(Cc2ccc(F)cc2)CC1` [Example 96, 1-(4-fluorobenzyl)-1-methyl-4-(octadecane-1-sulfonyl)piperazin-1-ium bromide], the concentration for 50% growth inhibition (GI50) is 3.25 µg/mL in the assay on ACHN (kidney cancer), 0.48 µg/mL in the assay on PC-3 (prostate cancer), 0.6 µg/mL in assay [1] and 2.73 µg/mL with NUGC-3 (gastric cancer).

(Values after patent publication US20100144708A1, “HETEROCYCLIC COMPOUNDS CONTAINING NITROGEN ATOMS OR PHARMACEUTICALLY ACCEPTABLE SALTS THEREOF, PROCESS FOR THE PREPARATION THEREOF AND PHARMACEUTICAL COMPOSITION COMPRISING THE SAME FOR TREATMENT OF CANCER” (Korea Research Instititute of Bioscience and Biotechnology, priority 2006, published 2010).)
